In patent US9353090B2, “Heterocyclic carboxylic acids as activators of soluble guanylate cyclase” (Boehringer Ingelheim International GmbH, priority 2014, dated 2016):
In brackets after ≈: the same amount, converted by molar mass.

Key:
physchem = conditions: kinetic from dmso stock
[1] = molecular target: human soluble guanylate cyclase alpha 1 and beta 1 subunits (sGC) (Homo sapiens (Human), UniProt Q02108+Q02153); test: sGC cellular activator assay (cGMP, HTRF), in the presence and absence of 50% human serum; assay type: cell-based; conditions: CHO cells stably expressing human sGC alpha 1/beta 1, preincubated with 40 microM ODQ; cGMP by HTRF; Table 2 does not state whether with or without 50% human serum
Chain of human soluble guanylate cyclase alpha 1 and beta 1 subunits (sGC) (Q02108 whole entry partner): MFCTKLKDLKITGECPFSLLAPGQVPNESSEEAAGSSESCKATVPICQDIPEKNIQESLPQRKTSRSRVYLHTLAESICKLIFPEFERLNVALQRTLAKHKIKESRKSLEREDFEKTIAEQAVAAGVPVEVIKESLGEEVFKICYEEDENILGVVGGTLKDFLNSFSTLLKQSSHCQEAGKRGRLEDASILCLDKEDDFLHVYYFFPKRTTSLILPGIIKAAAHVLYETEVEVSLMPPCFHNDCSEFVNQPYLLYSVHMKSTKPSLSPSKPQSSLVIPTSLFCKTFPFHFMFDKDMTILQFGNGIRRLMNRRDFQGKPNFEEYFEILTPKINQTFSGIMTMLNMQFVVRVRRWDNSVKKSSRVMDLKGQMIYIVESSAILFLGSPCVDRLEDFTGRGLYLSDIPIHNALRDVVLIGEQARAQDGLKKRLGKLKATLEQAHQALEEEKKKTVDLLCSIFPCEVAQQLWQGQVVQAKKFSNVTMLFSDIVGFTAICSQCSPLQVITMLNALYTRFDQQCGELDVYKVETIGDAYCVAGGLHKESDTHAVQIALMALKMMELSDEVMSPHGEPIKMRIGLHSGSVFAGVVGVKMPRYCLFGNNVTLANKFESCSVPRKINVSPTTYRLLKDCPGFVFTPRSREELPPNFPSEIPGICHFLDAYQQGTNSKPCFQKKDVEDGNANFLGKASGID
Chain of human soluble guanylate cyclase alpha 1 and beta 1 subunits (sGC) (Q02153 whole entry): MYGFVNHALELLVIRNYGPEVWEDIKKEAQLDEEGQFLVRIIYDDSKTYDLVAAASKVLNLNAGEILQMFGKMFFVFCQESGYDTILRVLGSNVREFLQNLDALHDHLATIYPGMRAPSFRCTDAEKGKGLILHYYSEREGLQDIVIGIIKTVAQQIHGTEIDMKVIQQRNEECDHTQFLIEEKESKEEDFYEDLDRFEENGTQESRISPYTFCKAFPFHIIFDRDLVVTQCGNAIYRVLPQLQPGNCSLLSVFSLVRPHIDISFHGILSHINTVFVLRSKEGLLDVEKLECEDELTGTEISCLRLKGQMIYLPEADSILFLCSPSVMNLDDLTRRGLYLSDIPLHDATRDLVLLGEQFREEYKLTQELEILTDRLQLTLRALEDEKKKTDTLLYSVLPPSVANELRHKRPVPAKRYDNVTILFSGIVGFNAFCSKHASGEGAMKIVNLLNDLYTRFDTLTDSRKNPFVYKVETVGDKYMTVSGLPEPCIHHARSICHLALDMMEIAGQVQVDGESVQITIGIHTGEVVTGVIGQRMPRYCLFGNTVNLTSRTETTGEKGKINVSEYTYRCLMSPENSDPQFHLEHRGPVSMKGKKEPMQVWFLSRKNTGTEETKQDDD
Protocol: The sGC cellular activator assay is performed in the presence and absence of 50% human serum (HS) using Chinese hamster ovary cells that have been stably transfected to express the human soluble guanylate cyclase alpha 1 and beta 1 subunits (sGC). Cells are preincubated with 40 microM 1H-[1,2,4]oxadiazolo[4,3-a]quinoxalin-1-one (ODQ), an sGC inhibitor, for one h in buffer containing 0.1% bovine serum albumin and 3-isobutyl-1-methylxanthine (IBMX). Concentration response curves are prepared for test compounds in DMSO. An intermediate dilution of the compounds is performed in either buffer containing IBMX or type AB HS containing IBMX. Diluted compounds are added to cells and they are incubated at room temperature for thirty min. cGMP is measured using a CisBio homogeneous time resolved fluorescence kit and the EC50 is calculated for each compound.
Representative compounds of the present invention were tested for activity the above assay. Preferred compounds have an EC50 of <1,000 nM in the above assay and more preferred compounds have an EC50<200 nM.

[2] = Human liver microsome (HLM) metabolic stability assay; assay type: in vitro ADME; conditions: human liver microsomes
Protocol: The 5 time point, high-throughput human liver microsome (HLM) metabolic stability assay is designed to determine in vitro compound metabolism. Compounds are incubated with HLMs at a concentration of 1 uM, at 37° C., for a total of 60 min. The percent of compound remaining at 5, 15, 30, and 60 min is used to calculate the t1/2 (min), CLint (mL/min/kg), CLh (mL/min/kg), and % Qh. The assay is based on a 96-well format and can accommodate up to 92 compounds per plate (n=1).
Using the 96-well multi-channel head, the Biomek FX, equipped with a Peltier heating block/shaker, is programmed to accomplish the following steps: • 1. Pipette 175 uL of 1.15 mg/mL microsomes into each of the 96 conical inserts (Analytical Sales and Products, catalog number 96PL05) that fit into the plate of the Peltier heating block/shaker (the incubation plate) • 2. Add 5 uL of compounds from the assay plate to the microsomes and shake the mixture at 600 rpm at 42.1° C. for 10 min (a setting of 42.1° C. on the Peltier is required for the samples to incubate at 37° C.) • 3. After 10 min, prompt the user to add the NADPH plate to the deck and add 20 uL from the NADPH plate to the incubation plate to start the reaction • 4. Add 215 uL of 100%, cold acetonitrile containing an internal standard(s) to a 0 minute, 5 minute, 15 minute, 30 minute, and 60 minute “quench” plate • 5. At 0 min, 5 min, 15 min, 30 min, and 60 min into the incubation, aspirate 12 uL from the incubation mixture and add it to the quench solution to stop the reaction • 6. Add 185 uL HPLC grade water to each well of the 0, 5, 15, 30 and 60 minute quench plates to dilute compounds to the appropriate concentration for the mass spectrometer
After all time points are collected, the quench plates are sealed with 96-well pierceable plate mats or heat sealing foil and centrifuged at 3000 rpm for 15 min to pellet the microsomes.
The plates are analyzed using LC/MS/MS with electron spray ionization (ESI) and the previously determined MRM transitions. The LC method includes the following parameters:
Using an Excel template in Activitybase, the peak areas corresponding to 5, 15, 30 and 60 min are compared to the peak area at 0 min to calculate the percent of remaining compound using the following equation:
Percent compound remaining=(AUC at Time t min/AUC at Time 0 min)×100 where t=0, 5, 15, 30 or 60 min.
Time (min) is plotted against the natural logarithm (Ln) of the percent compound remaining to determine the slope. The slope is used to calculate t1/2 (min) using the equation, t1/2=0.693/slope.
Clh, Hepatic clearance • Hepatic flow*f(u)*Clint/(hepatic flow+f(u)*Clint)
Qh, % Hepatic blood flow • (Clh/Hepatic flow)*100
Preferred compounds have % Qh values of less than 24.

[3] = pH 2.2, aqueous buffer, Solubility (pH 2.2)
[4] = pH 4.5, aqueous buffer, Solubility (pH 4.5)
[5] = pH 6.8, aqueous buffer, Solubility (pH 6.8)

SMILES	solubility at 24 h (physchem; [3]) [µg/mL]	solubility at 24 h (physchem; [4]) [µg/mL]	solubility at 24 h (physchem; [5]) [µg/mL]	EC50 [1] [nM]	Metabolic stability (Qh %), % hepatic blood flow [2] [%]
Cc1cc(COc2c(C)cccc2-c2csc(N3CC[C@@]4(C(=O)O)C[C@H]4C3)n2)c(C)c2c1CN(C1CCOC1)CC2 (some centres unmarked) [Compound 100]	130 (≈ 227 µM)	68 (≈ 119 µM)	27 (≈ 47.1 µM)	3	55
COC[C@H]1N(c2cccc(-c3cccc(C)c3OCc3cc4c(c(OC)c3)CN(C3COC3)CC4)n2)C[C@@H]2C[C@@]21C(=O)O [Compound 58]	110 (≈ 188 µM)	90 (≈ 154 µM)	80 (≈ 137 µM)	30	<24
CO[C@@H]1CN(c2cccc(-c3cccc(C)c3OCc3ccc4c(c3)C(C)(C)CN(C3CCOCC3)CC4)n2)CC[C@@H]1C(=O)O [Compound 324]	134 (≈ 218 µM)	103 (≈ 168 µM)	77.5 (≈ 126 µM)	2	<24
Cc1cc(COc2c(C)cccc2-c2csc(N3CC[C@@]4(C(=O)O)C[C@H]4C3)n2)c(C)c2c1CN(CC1COCCO1)CC2 (some centres unmarked) [Compound 98]	120 (≈ 199 µM)	75 (≈ 124 µM)	31 (≈ 51.3 µM)	1	48
CCO[C@H]1CN(c2nc(-c3cccc(Cl)c3OCc3cc4c(c(OC)c3)CN(C3CCOCC3)CC4)cs2)CC[C@H]1C(=O)O [Compound 261]	116 (≈ 180 µM)	40.7 (≈ 63.4 µM)	38.9 (≈ 60.6 µM)	3	29
CCO[C@@H]1CN(c2cccc(-c3cc(C)ccc3OCc3ccc4c(c3C)CCN(C3CCOCC3)CC4)n2)CC[C@@H]1C(=O)O [Compound 240]	123 (≈ 200 µM)	118 (≈ 193 µM)	117 (≈ 190 µM)	5	73
CCO[C@H]1CN(c2nc(-c3cccc(C)c3OCc3cc4c(c(OC)c3)CN(C3CCOCC3)CC4)cs2)CC[C@H]1C(=O)O [Compound 232]	142 (≈ 229 µM)	131 (≈ 211 µM)	131 (≈ 211 µM)	330	<24
Cc1cccc(-c2cccc(N3C[C@@H]4C[C@]4(C(=O)O)C3)n2)c1OCc1ccc2c(c1)CCN(C1CCOCC1)CC2 [Compound 31]	110 (≈ 199 µM)	95 (≈ 172 µM)	67 (≈ 121 µM)	7	<24
Cc1cccc(-c2csc(N3CC[C@@]4(C(=O)O)C[C@H]4C3)n2)c1OCc1ccc2c(c1)CCN(C1CCOCC1)C2 [Compound 84]	120 (≈ 214 µM)	70 (≈ 125 µM)	53 (≈ 94.7 µM)	27	<24
CCO[C@@H]1CN(c2nccc(-c3cccc(C)c3OCc3cc4c(c(OC)c3)CN(C3CCOCC3)CC4)n2)CC[C@@H]1C(=O)O [Compound 248]	91.2 (≈ 148 µM)	88.9 (≈ 144 µM)	88.1 (≈ 143 µM)	578	<24
Cc1cccc(-c2csc(N3C[C@@H]4C[C@]4(C(=O)O)C3)n2)c1OCc1ccc2c(c1)CCN(C1CCOCC1)C2 [Compound 135]	100 (≈ 183 µM)	70 (≈ 128 µM)	56 (≈ 103 µM)	39	<24
CO[C@H]1CN(c2cccc(-c3cccc(C)c3OCc3ccc4c(c3F)CCN(C3CCOCC3)CC4)n2)CC[C@H]1C(=O)O [Compound 277]	133 (≈ 220 µM)	97.1 (≈ 161 µM)	74.4 (≈ 123 µM)	4	<24
Cc1ccc(OCc2ccc3c(c2C)CCN(C2COC2)C3)c(-c2csc(N3CC[C@@]4(C(=O)O)C[C@H]4C3)n2)c1 [Compound 116]	140 (≈ 257 µM)	11 (≈ 20.2 µM)	6 (≈ 11 µM)	35	<24
Cc1cccc(-c2cccc(N3CC[C@@]4(C(=O)O)C[C@H]4C3)n2)c1OCc1ccc2c(c1C)CCN(C1CCOCC1)C2 [Compound 14]	120 (≈ 211 µM)	94 (≈ 166 µM)	53 (≈ 93.4 µM)	3	61
CO[C@H]1CN(c2nc(-c3cccc(Cl)c3OCc3ccc4c(c3C)CCN(C3CCOCC3)C4)cs2)CC[C@H]1C(=O)O [Compound 207]	143 (≈ 234 µM)	88.6 (≈ 145 µM)	76.8 (≈ 125 µM)	8	<24
CO[C@@H]1CN(c2cccc(-c3cc(C)ccc3OCc3ccc4c(c3C)CCN(C3CCOCC3)C4)n2)CC[C@@H]1C(=O)O [Compound 75]	120 (≈ 205 µM)	110 (≈ 188 µM)	74 (≈ 126 µM)	15	<24
Cc1ccc(OCc2ccc3c(c2C)CCN(C2CCOC2)CC3)c(-c2csc(N3CC[C@@]4(C(=O)O)C[C@H]4C3)n2)c1 (some centres unmarked) [Compound 133]	90 (≈ 157 µM)	12 (≈ 20.9 µM)	1.6 (≈ 2.79 µM)	18	43
COc1cc(COc2ccc(C)cc2-c2cccc(N3CC[C@H](C(=O)O)[C@H](OC)C3)n2)cc2c1CN(C1CCOCC1)CC2 [Compound 80]	150 (≈ 249 µM)	130 (≈ 216 µM)	92 (≈ 153 µM)	23	<24
Cc1cccc(-c2csc(N3CC[C@@]4(C(=O)O)C[C@H]4C3)n2)c1OCc1ccc2c(c1C)CCN(C1CCOC1)CC2 (some centres unmarked) [Compound 106]	130 (≈ 227 µM)	66 (≈ 115 µM)	44 (≈ 76.7 µM)	5	39
